Laboratory results published in patent publication US7541352B2, “Compounds for the treatment of hepatitis C” (Bristol-Myers Squibb Company, priority 2007, dated 2009).
Like-named read-outs stand apart in the source and are kept apart here.

Assays:
[1] = target: T1, HCV NS5B RdRp genotype 1b (Hepatitis C virus genotype 1b, UniProt Q9WMX2); test: Modified HCV NS5B RdRp enzyme assay (preincubation protocol); type: biochemical
T1 construct: The protein was expressed with an 18 amino acid C-terminal truncation to enhance the solubility; made in house; host or cells: E. coli BL21(DE3), pET21a
T1 sequence (Q9WMX2 2420-2992): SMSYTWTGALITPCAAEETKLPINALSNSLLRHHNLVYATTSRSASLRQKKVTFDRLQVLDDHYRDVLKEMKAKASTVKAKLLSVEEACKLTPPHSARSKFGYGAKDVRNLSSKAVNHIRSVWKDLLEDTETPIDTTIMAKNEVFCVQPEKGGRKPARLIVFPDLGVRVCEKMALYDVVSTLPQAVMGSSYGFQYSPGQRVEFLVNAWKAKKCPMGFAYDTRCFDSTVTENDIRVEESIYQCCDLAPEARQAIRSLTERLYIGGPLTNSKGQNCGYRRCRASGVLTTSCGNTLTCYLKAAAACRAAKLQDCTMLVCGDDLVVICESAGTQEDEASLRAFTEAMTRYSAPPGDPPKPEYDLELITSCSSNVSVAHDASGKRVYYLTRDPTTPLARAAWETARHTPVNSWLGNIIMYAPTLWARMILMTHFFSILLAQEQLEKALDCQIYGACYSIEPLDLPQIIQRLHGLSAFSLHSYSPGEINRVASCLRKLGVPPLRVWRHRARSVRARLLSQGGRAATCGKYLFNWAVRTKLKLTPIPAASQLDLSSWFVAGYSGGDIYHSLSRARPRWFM
Description: HCV NS5B RdRp cloning, expression, and purification. The cDNA encoding the NS5B protein of HCV, genotype 1b, was cloned into the pET21a expression vector. The protein was expressed with an 18 amino acid C-terminal truncation to enhance the solubility. The E. coli competent cell line BL21(DE3) was used for expression of the protein. Cultures were grown at 37° C. for ˜4 hours until the cultures reached an optical density of 2.0 at 600 nm. The cultures were cooled to 20° C. and induced with 1 mM IPTG. Fresh ampicillin was added to a final concentration of 50 μg/ml and the cells were grown overnight at 20° C.
Cell pellets (3 L) were lysed for purification to yield 15-24 mgs of purified NS5B. The lysis buffer consisted of 20 mM Tris-HCl, pH 7.4, 500 mM NaCl, 0.5% triton X-100, 1 mM DTT, 1 mM EDTA, 20% glycerol, 0.5 mg/ml lysozyme, 10 mM MgCl2, 15 ug/ml deoxyribonuclease I, and Complete TM protease inhibitor tablets (Roche). After addition of the lysis buffer, frozen cell pellets were resuspended using a tissue homogenizer. To reduce the viscosity of the sample, aliquots of the lysate were sonicated on ice using a microtip attached to a Branson sonicator. The sonicated lysate was centrifuged at 100,000×g for 1 hr at 4° C. and filtered through a 0.2 μm filter unit (Corning).
The protein was purified using two sequential chromatography steps: Heparin sepharose CL-6B and polyu sepharose 4B (Pharmacia). The chromatography buffers were identical to the lysis buffer but contained no lysozyme, deoxyribonuclease I, MgCl2 or protease inhibitor and the NaCl concentration of the buffer was adjusted according to the requirements for charging the protein onto the column. Each column was eluted with a NaCl gradient which varied in length from 5-50 column volumes depending on the column type. After the final chromatography step, the resulting purity of the enzyme is >90% based on SDS-PAGE analysis. The enzyme was aliquoted and stored at −80° C.
Standard HCV NS5B RdRp enzyme assay. HCV RdRp genotype 1b assays were run in a final volume of 60 μl in 96 well plates (Corning 3600). The assay buffer is composed of 20 mM Hepes, pH 7.5, 2.5 mM KCl, 2.5 mM MgCl2, 1 mM DTT, 1.6 U RNAse inhibitor (Promega N2515), 0.01 mg/ml BSA (Sigma B6917), and 2% glycerol. All compounds were serially diluted (3-fold) in DMSO and diluted further in water such that the final concentration of DMSO in the assay was 2%. HCV RdRp genotype 1b enzyme was used at a final concentration of 28 nM. A polyA template was used at 6 nM, and a biotinylated oligo-dT 12 primer was used at 180 nM final concentration. Template was obtained commercially (Amersham 27-4110). Biotinylated primer was prepared by Sigma Genosys. 3H-UTP was used at 0.6 μCi (0.29 μM total UTP). Reactions were initiated by the addition of enzyme, incubated at 30° C. for 60 min, and stopped by adding 25 μl of 50 mM EDTA containing SPA beads (4 μg/μl, Amersham RPNQ 0007). Plates were read on a Packard Top Count NXT after >1 hr incubation at room temperature.
Modified HCV NS5B RdRp enzyme assay. A modified enzyme assay was performed essentially as described for the standard enzyme assay except for the following: The biotinylated oligo dT12 primer was precaptured on streptavidin-coated SPA beads by mixing primer and beads in assay buffer and incubating at room temperature for one hour. Unbound primer was removed after centrifugation. The primer-bound beads were resuspended in 20 mM Hepes buffer, pH 7.5 and used in the assay at final concentrations of 20 nM primer and 0.67 μg/μl beads. Order of addition in the assay: enzyme (1.75 nM) was added to diluted compound followed by the addition of a mixture of template (0.36 nM), 3H-UTP (0.6 μCi, 0.29 μM), and primer-bound beads, to initiate the reaction; concentrations given are final. Reactions were allowed to proceed for 4 hours at 30° C.
IC50 values for compounds were determined using seven different [I]. […]

HCV replicon cells = test: HCV replicon FRET assay; type: cell-based
Description: FRET Assay Preparation. The HCV FRET screening assay was performed in 96-well cell culture plates. The FRET peptide (Anaspec, Inc.) (Taliani et al., Anal. Biochem. 1996, 240, 60-67) contains a fluorescence donor, EDANS, near one end of the peptide and an acceptor, DABCYL, near the other end. The fluorescence of the peptide is quenched by […] resonance energy transfer (RET) between the donor and the acceptor, but as the NS3 protease cleaves the peptide the products are released from RET quenching and the fluorescence of the donor becomes apparent. The assay reagent was made as follows: 5× cell Luciferase cell culture lysis reagent from Promega (#E153A) diluted to 1× with dH2O, NaCl added to 150 mM final, the FRET peptide diluted to 20 μM final from a 2 mM stock.
To prepare plates, HCV replicon cells, with or without a Renilla luciferase reporter gene, were trypsinized and plated in a 96-well plate with titrated test compounds added in columns 3 through 12; columns 1 and 2 contained a control compound (HCV control inhibitor), and the bottom row contained cells with DMSO only. The plates were then placed in a CO2 incubator at 37° C.
Assays. Subsequent to addition of the test compounds described above (FRET Assay Preparation), at various times the plate was removed and Alamar blue solution (Trek Diagnostics, #00-100) was added to measure cellular toxicity. After reading in a Cytoflour 4000 instrument (PE Biosystems), plates were rinsed with PBS and then used for FRET assay by the addition of 30 ul of the FRET peptide assay reagent described above (FRET Assay Preparation) per well. The plate was then placed into the Cytoflour 4000 instrument which had been set to 340 excite/490 emission, automatic mode for up to 20 cycles and the plate read in a kinetic mode. Typically, the signal to noise using an endpoint analysis after the reads was at least three-fold. Alternatively, after Alamar blue reading, plates were rinsed with PBS, then used for luciferase assay using the Promega Dual-Glo Luciferase Assay System or the Promega EnduRen Live Cell Substrate assay.
Compound analysis was performed by quantification of the relative HCV replicon inhibition and the relative cytotoxicity values. To calculate cytoxicity values, the average Alamar Blue fluorescence signals from the control wells were set as 100% non-toxic. The individual signals in each of the compound test wells were then divided by the average control signal and multiplied by 100% to determine […]. To calculate the HCV replicon inhibition values, an average background value was obtained from the two wells containing the highest amount of HCV control inhibitor at the end of the assay period. These numbers were similar to those obtained from naïve Huh-7 cells. The background numbers were then subtracted from the average signal obtained from the control wells and this number was used as 100% activity. The individual signals in each of the compound test wells were then divided by the averaged control values after background subtraction and multiplied by 100% to determine percent activity. EC50 values were calculated as the concentration which caused a 50% reduction in FRET or luciferase activity. The two numbers generated for the compound plate, percent cytoxicity and percent activity, were used to determine compounds of interest for further analysis.

[2] = HCV NS5B RdRp, determined using the preincubation protocol, read-out: IC50
[3] = Hepatitis C virus, HCV replicon cells, determined using the FRET assay, read-out: EC50

Question: What does the source list for `COc1ccc2c(c1)C1CC1(NC(=O)C(=O)N1C3CCC1CN(C)C3)Cn1c-2c(C2CCCCC2)c2ccc(C(=O)NS(=O)(=O)N(C)C)cc21` (stereo not shown)?
Answer: IC50 [1]: 1 to 500 nM; EC50 (HCV replicon cells; Hepatitis C virus): 1 to 500 nM

Question: For `CCC(C)S(=O)(=O)NC(=O)c1ccc2c(C3CCCCC3)c3n(c2c1)CC1(NC(=O)C(=O)N(C)C)CC1c1cc(OC)ccc1-3` (stereo not shown), which IC50 [1, 2] is on record?
Answer: The IC50 was 1 to 500 nM.

Question: And the EC50 (HCV replicon cells; [3])?
Answer: Its EC50 is 1 to 500 nM.

Question: Which IC50 [1, 2] does the source give for `COc1ccc2c(c1)[C@H]1C[C@@]1(NC(=O)C(=O)N(C)C)Cn1c-2c(C2CCCCC2)c2ccc(C(=O)NS(=O)(=O)N(C)C)cc21` [drawing 42] here?
Answer: The IC50 was 1 to 500 nM.

Question: What about the EC50 (HCV replicon cells; [3]) of the same molecule?
Answer: Its EC50 is 1 to 500 nM.

Question: With `COc1ccc2c(c1)C1CC1(NC(=O)C(=O)N1CCCN(C)CC1)Cn1c-2c(C2CCCCC2)c2ccc(C(=O)NS(=O)(=O)N(C)C)cc21` (stereo not shown) as the molecule, how does the IC50 [1, 2] read?
Answer: The IC50 was 1 to 500 nM.

Question: What about the EC50 (HCV replicon cells; [3]) of the same molecule?
Answer: The EC50 was 1 to 500 nM.

Question: Which results are given for `COc1ccc2c(c1)C1CC1(N(C)C(=O)C(=O)N1CC(OC)C1)Cn1c-2c(C2CCCCC2)c2ccc(C(=O)NS(=O)(=O)N(C)C)cc21` (stereo not shown)?
Answer: IC50 [1, 2]: 1 to 500 nM; EC50 (HCV replicon cells; [3]): 1 to 500 nM

Question: What does the source list for `COc1ccc2c(c1)[C@@H]1C[C@]1(NC(=O)C(=O)N(C)C)Cn1c-2c(C2CCCCC2)c2ccc(C(=O)NS(=O)(=O)N(C)C)cc21` [drawing 35]?
Answer: IC50 [1, 2]: 1 to 500 nM; EC50 (HCV replicon cells; [3]): 1 to 500 nM

Question: With `COc1ccc(C2COCCN2C(=O)C(=O)NC23CC2c2cc(OC)ccc2-c2c(C4CCCCC4)c4ccc(C(=O)NS(=O)(=O)N(C)C)cc4n2C3)cc1` (stereo not shown) as the molecule, how does the IC50 [1, 2] read?
Answer: Its IC50 is 1 to 500 nM.

Question: What about the EC50 (HCV replicon cells; [3]) of the same molecule?
Answer: Its EC50 is 1 to 500 nM.

Question: How did the IC50 [1, 2] turn out when `COc1ccc2c(c1)C1CC1(NC(=O)C(=O)N1CCN(C)CC1)Cn1c-2c(C2CCCCC2)c2ccc(C(=O)NS(=O)(=O)N(C)C)cc21` (stereo not shown) was run?
Answer: Its IC50 is 1 to 500 nM.

Question: What about the EC50 (HCV replicon cells; [3]) of the same molecule?
Answer: The EC50 was 1 to 500 nM.

Question: With `COc1ccc2c(c1)[C@@H]1C[C@]1(N(C)C(=O)C(=O)N1CCOCC1c1ccccc1)Cn1c-2c(C2CCCCC2)c2ccc(C(=O)NS(=O)(=O)N(C)C)cc21` (stereo partly shown) as the molecule, how does the IC50 [1, 2] read?
Answer: Its IC50 is 1 to 500 nM.

Question: What about the EC50 (HCV replicon cells; [3]) of the same molecule?
Answer: Its EC50 is 1 to 500 nM.

Question: How did the IC50 [1, 2] turn out when `COc1ccc2c(c1)C1CC1(NC(=O)C(=O)N(C)C)Cn1c-2c(C2CCCCC2)c2ccc(C(=O)NS(=O)(=O)N(C)C)cc21` (stereo not shown) was run?
Answer: The IC50 was 1 to 500 nM.

Question: And the EC50 (HCV replicon cells; [3])?
Answer: Its EC50 is 1 to 500 nM.

Question: What does the source list for `COc1ccc2c(c1)[C@@H]1C[C@]1(NC(=O)C(=O)N1C[C@@H](C)O[C@@H](C)C1)Cn1c-2c(C2CCCCC2)c2ccc(C(=O)NS(=O)(=O)N(C)C)cc21` [drawing 34]?
Answer: IC50 [1, 2]: 1 to 500 nM; EC50 (HCV replicon cells; [3]): 1 to 500 nM

Question: With `COc1ccc2c(c1)C1CC1(NC(=O)C(=O)N1CC(C)N(C)C(C)C1)Cn1c-2c(C2CCCCC2)c2ccc(C(=O)NS(=O)(=O)N(C)C)cc21` (stereo not shown) as the molecule, how does the IC50 [1, 2] read?
Answer: The IC50 was 1 to 500 nM.

Question: And the EC50 (HCV replicon cells; [3])?
Answer: Its EC50 is 1 to 500 nM.

Question: Which results are given for `COC(=O)C(=O)NC12CC1c1cc(OC)ccc1-c1c(C3CCCCC3)c3ccc(C(=O)NS(=O)(=O)N(C)C)cc3n1C2` (stereo not shown)?
Answer: IC50 [1, 2]: 1 to 500 nM; EC50 (HCV replicon cells; [3]): 1 to 500 nM

Question: For `COc1ccc2c(c1)C1CC1(NC(=O)C(=O)N1CCCC1)Cn1c-2c(C2CCCCC2)c2ccc(C(=O)NS(=O)(=O)N(C)C)cc21` (stereo not shown) [drawing 39], which IC50 [1, 2] is on record?
Answer: The IC50 was 1 to 500 nM.

Question: What about the EC50 (HCV replicon cells; HCV replicon cells, determined using the FRET assay, read-out: EC50) of the same molecule?
Answer: The EC50 was 1 to 500 nM.
